Measurements from PMC11374673, “Discovery of isoquinoline sulfonamides as allosteric gyrase inhibitors with activity against fluoroquinolone-resistant bacteria” (Nature Chemistry, 2024).
≈ marks a conversion by molar mass, not a printed value. Where “and” joins values, the source holds several entries; their conditions need not be identical. Equal values may be shown once. Entries after “also recorded” stand apart in the source; their conditions may differ.

Experiments:
HepG2 = experiment: Cytotoxicity assay (MTT); format: cell-based, human; conditions: for IC50: MTT, 24 h
Protocol: (§1) HepG2 (ATCC HB-8065) and HEK293T (ATCC CRL-3216) cell lines were cultured at 37 °C and 7% CO2 in Dulbecco’s modified Eagle medium (Sigma-Aldrich, D6546) with GlutaMax, penicillin (100 µg ml^−1), streptomycin (100 µg ml^−1) and 10% fetal calf serum. Cells were passaged twice a week by first detaching using 0.05% trypsin in phosphate-buffered saline (PBS) and then diluting to appropriate confluence. Compound cytotoxicity was evaluated using the standard (3-(4,5-dimethylthiazol-2-yl)-2,5-diphenyltetrazolium bromide (MTT) assay protocol (MTT assay protocol for cell viability and proliferation, Merck) with slight changes. HepG2 and HEK293T cells were seeded at a density of 1.5 × 10^4 cells per well in a clear 96-well tissue culture treated plate in a final volume of 100 µl in Dulbecco’s modified Eagle medium, supplemented with fetal bovine serum (1%), GlutaMax and penicillin/streptomycin. Cells were incubated for 24 h at 37 °C, 7% CO2 to allow cells to attach to the plates. […] Incubation was done for 24 h at 37 °C, 7% CO2. After the incubation, MTT was added to each well at a final concentration of 0.40 mg ml^−1. The plates were then incubated for 2 h at 37 °C, 7% CO2. Medium was carefully removed via suction, and purple formazan crystals were resuspended in 100 µl DMSO. Absorbance was read at 570 nm using a Clariostar plate reader with MARS (V4.20). The data were then analysed with GraphPad Prism software. IC50 values were calculated using non-linear fitted curve with variable slope settings, with values adjusted for background (plotted absorbance (ABS)sample = (ABSsample – ABSbackground) / (ABSvehicle – ABSbackground)). Technical triplicates for each condition were used, along with biological duplicates.

HEK293T = experiment: Cytotoxicity assay (MTT); format: cell-based, human; conditions: for MTT data (raw readout): HEK293T; for IC50: Homo sapiens, HEK-293T, 24 h, MTT
Protocol: as §1

E. coli W3110 = experiment: MIC by broth microdilution; format: cell-based, Escherichia coli; conditions: for MIC: Escherichia coli, W3110, WT, broth microdilution, read-out: MIC E. coli W3110
Outline: (§2)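 Broth microdilution in CAMHB: twofold compound series inoculated with 100-fold-diluted bacteria from exponential growth (OD600 0.5, 37 °C); kanamycin 50 µg ml^−1 added for Keio collection strains. Overnight incubation, 37 °C, 600 r.p.m. shaking.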

K. pneumoniae ATCC 29665 = experiment: MIC by broth microdilution; format: cell-based, Klebsiella pneumoniae; conditions: Klebsiella pneumoniae, ATCC29665, broth microdilution; read-out: MIC K. pneumoniae ATCC 29665
Outline: as §2

[1] = HepG2, 0.023 uM, experiment n = 1, technical triplicates
[2] = HepG2, 0.023 uM, experiment n = 2, technical triplicates
[3] = HepG2, 0.068 uM, experiment n = 1, technical triplicates
[4] = HepG2, 0.068 uM, experiment n = 2, technical triplicates
[5] = HepG2, 0.21 uM, experiment n = 1, technical triplicates
[6] = HepG2, 0.21 uM, experiment n = 2, technical triplicates
[7] = HepG2, 0.62 uM, experiment n = 1, technical triplicates
[8] = HepG2, 0.62 uM, experiment n = 2, technical triplicates
[9] = HepG2, 1.85 uM, experiment n = 1, technical triplicates
[10] = HepG2, 1.85 uM, experiment n = 2, technical triplicates
[11] = HepG2, 5.6 uM, experiment n = 1, technical triplicates
[12] = HepG2, 5.6 uM, experiment n = 2, technical triplicates
[13] = HepG2, 16.7 uM, experiment n = 1, technical triplicates
[14] = HepG2, 16.7 uM, experiment n = 2, technical triplicates
[15] = 0.023 uM, experiment n = 1, technical triplicates
[16] = 0.023 uM, experiment n = 2, technical triplicates
[17] = 0.068 uM, experiment n = 1, technical triplicates
[18] = 0.068 uM, experiment n = 2, technical triplicates
[19] = 0.21 uM, experiment n = 1, technical triplicates
[20] = 0.21 uM, experiment n = 2, technical triplicates
[21] = 0.62 uM, experiment n = 1, technical triplicates
[22] = 0.62 uM, experiment n = 2, technical triplicates
[23] = 1.85 uM, experiment n = 1, technical triplicates
[24] = 1.85 uM, experiment n = 2, technical triplicates
[25] = 5.6 uM, experiment n = 1, technical triplicates
[26] = 5.6 uM, experiment n = 2, technical triplicates
[27] = 16.7 uM, experiment n = 1, technical triplicates
[28] = 16.7 uM, experiment n = 2, technical triplicates
[29] = 50 uM, experiment n = 1, technical triplicates

| Compound | MTT data (raw readout) (HepG2; [1]) | MTT data (raw readout) (HepG2; [2]) | MTT data (raw readout) (HepG2; [3]) | MTT data (raw readout) (HepG2; [4]) | MTT data (raw readout) (HepG2; [5]) | MTT data (raw readout) (HepG2; [6]) | MTT data (raw readout) (HepG2; [7]) | MTT data (raw readout) (HepG2; [8]) | MTT data (raw readout) (HepG2; [9]) | MTT data (raw readout) (HepG2; [10]) | IC50 (HepG2; Homo sapiens, HepG2, 24 h) [µM] | MTT data (raw readout) (HEK293T; [15]) | MTT data (raw readout) (HEK293T; [16]) | MTT data (raw readout) (HEK293T; [17]) | MTT data (raw readout) (HEK293T; [18]) | MTT data (raw readout) (HEK293T; [19]) | MTT data (raw readout) (HEK293T; [20]) | MTT data (raw readout) (HEK293T; [21]) | MTT data (raw readout) (HEK293T; [22]) | MTT data (raw readout) (HEK293T; [23]) | further results |
| --- | --- | --- | --- | --- | --- | --- | --- | --- | --- | --- | --- | --- | --- | --- | --- | --- | --- | --- | --- | --- | --- |
| N#Cc1ccc(-c2ccc(CNCCNS(=O)(=O)c3cccc4cnccc34)cc2)cc1 [Compound 63] | 0.543 and 0.530 and 0.509 | 0.611 and 0.614 and 0.593 | 0.510 and 0.515 and 0.533 | 0.570 and 0.587 and 0.633 | 0.498 and 0.524 and 0.534 | 0.605 and 0.658 and 0.657 | 0.497 and 0.566 and 0.560 | 0.617 and 0.653 and 0.661 | 0.544 and 0.508 and 0.538 | 0.697 and 0.634 and 0.669 | 38 | 0.901 and 1.153 and 1.291 | 0.788 and 0.714 and 0.753 | 1.230 and 1.606 | 0.880 and 0.788 | 1.126 and 1.263 and 1.301 | 0.786 and 0.824 and 0.781 | 1.516 and 1.537 and 1.418 | 0.850 and 0.846 and 0.825 | 1.143 and 1.250 and 1.118 | MTT data (raw readout) (HepG2; [11]): 0.597 and 0.586 and 0.658; MTT data (raw readout) (HepG2; [12]): 0.663 and 0.721 and 0.746; MTT data (raw readout) (HepG2; [13]): 0.547 and 0.517 and 0.544; MTT data (raw readout) (HepG2; [14]): 0.629 and 0.671 and 0.616; MTT data (raw readout) (HEK293T; [24]): 0.775 and 0.761 and 0.773; MTT data (raw readout) (HEK293T; [25]): 1.050 and 1.130 and 1.181; MTT data (raw readout) (HEK293T; [26]): 0.666 and 0.667 and 0.723; MTT data (raw readout) (HEK293T; [27]): 0.577 and 0.585 and 0.499; MTT data (raw readout) (HEK293T; [28]): 0.403 and 0.407 and 0.398; MTT data (raw readout) (HEK293T; [29]): 0.057 and 0.055 and 0.049; IC50 (HEK293T): 14.7 µM; MIC (E. coli W3110): 6.25 µM (≈ 2.77 µg/mL); MIC (K. pneumoniae ATCC 29665): 12.5 µM (≈ 5.53 µg/mL) |
| O=S(=O)(NC[C@H]1CC[C@H](c2ccc(-c3ccc(F)nc3)cc2)N1)c1cccc2cnccc12 [Compound 97] | 0.311 and 0.313 and 0.321 | 0.270 and 0.220 and 0.207 | 0.289 and 0.307 and 0.326 | 0.263 and 0.259 and 0.236 | 0.296 and 0.298 and 0.289 | 0.257 and 0.247 and 0.226 | 0.322 and 0.321 and 0.315 | 0.242 and 0.234 | 0.327 and 0.348 and 0.347 | 0.240 and 0.213 | > 100 | 1.365 and 1.275 and 1.431 | 0.941 and 0.907 and 1.040 | 1.367 and 1.278 and 1.395 | 0.968 and 0.952 and 1.040 | 1.452 and 1.196 and 1.181 | 0.930 and 0.987 and 0.817 | 1.160 and 1.204 and 1.255 | 0.874 and 0.902 and 0.863 | 1.307 and 1.173 and 1.284 | IC50 (HepG2): > 50 µM; MTT data (raw readout) (HEK293T; [24]): 0.763 and 0.774 and 0.841; IC50 (HEK293T): 39 µM; MIC (E. coli W3110): 12.5 µM (≈ 5.78 µg/mL); antimicrobial activity (E. coli W3110; relative to parent compound): fourfold less active; also recorded: reduced activity; MIC (K. pneumoniae ATCC 29665): 25 µM (≈ 11.6 µg/mL) |
| O=S(=O)(NC[C@@H]1CC[C@H](c2ccc(-c3ccccc3)cc2)N1)c1cccc2cnccc12 [Compound 100] | 0.333 and 0.336 and 0.361 | 0.317 and 0.327 and 0.342 | 0.444 and 0.395 and 0.393 | 0.444 and 0.405 and 0.418 | 0.321 and 0.295 and 0.307 | 0.315 and 0.286 and 0.293 | 0.316 and 0.335 and 0.382 | 0.313 and 0.317 and 0.366 | 0.377 and 0.346 and 0.368 | 0.307 and 0.264 and 0.317 | 37 | 1.435 and 1.455 and 1.506 | 1.022 and 0.970 and 0.963 | 1.260 and 1.443 and 1.546 | 1.032 and 0.974 and 0.962 | 1.440 and 1.428 and 1.427 | 1.023 and 0.943 and 0.880 | 1.304 and 1.414 and 1.203 | 0.795 and 0.796 and 0.802 | 0.892 and 0.934 and 1.008 | MTT data (raw readout) (HepG2; [11]): 0.341 and 0.333 and 0.345; MTT data (raw readout) (HepG2; [12]): 0.271 and 0.300 and 0.310; MTT data (raw readout) (HepG2; [13]): 0.345 and 0.363 and 0.356; MTT data (raw readout) (HepG2; [14]): 0.277 and 0.308 and 0.357; MTT data (raw readout) (HepG2; HepG2, 50 uM, experiment n = 1, technical triplicates): 0.236 and 0.222 and 0.339; MTT data (raw readout) (HepG2; HepG2, 50 uM, experiment n = 2, technical triplicates): 0.109 and 0.122 and 0.118; cytotoxicity (HEK293T; HEK293T and HepG2): substantial cytotoxicity; MTT data (raw readout) (HEK293T; [24]): 0.653 and 0.625 and 0.564; MTT data (raw readout) (HEK293T; [25]): 0.787 and 0.844 and 0.842; MTT data (raw readout) (HEK293T; [26]): 0.528 and 0.470 and 0.496; MTT data (raw readout) (HEK293T; [27]): 0.654 and 0.620 and 0.622; MTT data (raw readout) (HEK293T; [28]): 0.433 and 0.475 and 0.464; MTT data (raw readout) (HEK293T; [29]): 0.419 and 0.461 and 0.443; MTT data (raw readout) (HEK293T; 50 uM, experiment n = 2, technical triplicates): 0.271 and 0.254 and 0.252; IC50 (HEK293T): 8.1 µM; MIC (E. coli W3110): 1.6 µM (≈ 0.71 µg/mL); MIC (K. pneumoniae ATCC 29665): 6.25 µM (≈ 2.77 µg/mL) |
